The target in one test is GSK3α (Homo sapiens (Human), UniProt P49840). Description: GSK 3α enzyme inhibition (Z-LYTE FRET, Method 2). The test is classed as biochemical. As to the method: (§1) The enzyme inhibitory activities of compounds disclosed herein are determined by FRET using synthetic peptides labelled with both donor and acceptor fluorophores (Z-LYTE, Invitrogen Ltd., Paisley, UK).
The inhibitory activities of compounds of the invention against the GSK 3α enzyme isoform (Invitrogen), are evaluated by determining the level of activation/phosphorylation of the target peptide. The GSK3-α protein (500 ng/mL, 2.5 μL) is mixed with the test compound (2.5 μL at either 4 μg/mL, 0.4 μg/mL, 0.04 μg/mL, or 0.004 μg/mL) for 2 hr at RT. The FRET peptide (8 μM, 2.5 μL), which is a phosphorylation target for GSK3α, and ATP (40 μM, 2.5 μL) are then added to the enzyme/compound mixture and the resulting mixture incubated for 1 hr. Development reagent (protease, 5 μL) is added for 1 hr prior to detection in a fluorescence microplate reader (Varioskan® Flash, ThermoFisher Scientific).
(§2) In all cases, the site-specific protease cleaves non-phosphorylated peptide only and eliminates the FRET signal. Phosphorylation levels of each reaction are calculated using the ratio of coumarin emission (donor) over fluorescein emission (acceptor), for which high ratios indicate high phosphorylation and low ratios indicate low phosphorylation levels.

Test [1] concerns PBMCs. Description: LPS-induced TNFα/IL-8 release in PBMC cells. The following applies: Homo sapiens, read-out: IC50 Values for Inhibition of Cytokine Release PBMCs IL-8. The test is classed as cell-based. The procedure:
Peripheral blood mononuclear cells (PBMCs) from healthy subjects are separated from whole blood using a density gradient (Lymphoprep, Axis-Shield Healthcare). The PBMCs are seeded in 96 well plates and treated with compounds at the desired concentration for 2 hours before addition of 1 ng/mL LPS (Escherichia Coli O111:B4 from Sigma Aldrich) for 24 hours under normal tissue culture conditions (37° C., 5% CO2). The supernatant is harvested for determination of IL-8 and TN Fa concentrations by sandwich ELISA (Duo-set, R&D systems) and read on the fluorescence microplate reader (Varioskan® Flash, ThermoFisher Scientific).

The test system of test [2] is PBMCs. Description: IL-2 and IFN gamma release in CD3/CD28 stimulated PBMC cells. It counts as cell-based. Particulars: Homo sapiens. The procedure: PBMCs from healthy subjects are separated from whole blood using a density gradient (Lymphoprep, Axis-Shield Healthcare). Cells are added to a 96 well plate pre-coated with a mixture of CD3/CD38 monoclonal antibodies (0.3 μg/mL eBioscience and 3 μg/mL BD Pharmingen respectively). Compound at the desired concentration is then added to the wells and the plate left for 3 days under normal tissue culture conditions. Supernatants are harvested and IL-2 and IFN gamma release determined by Sandwich ELISA (Duo-set, R&D System). The IC50 is determined from the dose response curve.

A further test addresses p38 MAPKα (Homo sapiens (Human), UniProt Q16539). Briefly: p38 MAPKα enzyme inhibition (Z-LYTE FRET, Method 2). The test is classed as biochemical. As to the method: as §1
The inhibitory activities of test compounds against the p38 MAPKα isoform (MAPK14: Invitrogen), are evaluated indirectly by determining the level of activation/phosphorylation of the down-stream molecule, MAPKAP-K2. The p38 MAPKα protein (80 ng/mL, 2.5 μL) is mixed with the test compound (2.5 μL of either 4 μg/mL, 0.4 μg/mL, 0.04 μg/mL or 0.004 μg/mL) for 2 hr at RT. […] The mixture is incubated for 1 hr at RT. Development reagent (protease, 5 μL) is added for 1 hr prior to detection in a fluorescence microplate reader (Varioskan® Flash, ThermoFisher Scientific).
as §2

Where [3] appears, read: read-out: IC50 Values for Inhibition of Cytokine Release PBMCs IFNγ.
Where [4] appears, read: read-out: IC50 Values for Inhibition of Cytokine Release PBMCs IL-2.

Chain of GSK3α (P49840 whole entry, canonical isoform): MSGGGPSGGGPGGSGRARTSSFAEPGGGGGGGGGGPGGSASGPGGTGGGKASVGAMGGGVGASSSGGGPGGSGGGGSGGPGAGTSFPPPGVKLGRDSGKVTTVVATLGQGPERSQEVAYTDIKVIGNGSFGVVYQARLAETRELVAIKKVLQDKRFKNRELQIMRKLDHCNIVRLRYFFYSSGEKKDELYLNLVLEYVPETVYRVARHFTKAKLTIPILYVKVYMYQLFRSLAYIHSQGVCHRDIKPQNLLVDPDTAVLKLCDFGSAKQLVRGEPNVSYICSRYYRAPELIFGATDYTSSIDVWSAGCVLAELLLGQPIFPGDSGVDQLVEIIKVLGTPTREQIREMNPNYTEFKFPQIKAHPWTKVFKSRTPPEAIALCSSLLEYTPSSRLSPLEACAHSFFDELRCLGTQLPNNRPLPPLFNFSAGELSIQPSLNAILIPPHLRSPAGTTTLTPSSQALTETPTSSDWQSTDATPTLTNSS
Chain of p38 MAPKα (Q16539 whole entry, canonical isoform): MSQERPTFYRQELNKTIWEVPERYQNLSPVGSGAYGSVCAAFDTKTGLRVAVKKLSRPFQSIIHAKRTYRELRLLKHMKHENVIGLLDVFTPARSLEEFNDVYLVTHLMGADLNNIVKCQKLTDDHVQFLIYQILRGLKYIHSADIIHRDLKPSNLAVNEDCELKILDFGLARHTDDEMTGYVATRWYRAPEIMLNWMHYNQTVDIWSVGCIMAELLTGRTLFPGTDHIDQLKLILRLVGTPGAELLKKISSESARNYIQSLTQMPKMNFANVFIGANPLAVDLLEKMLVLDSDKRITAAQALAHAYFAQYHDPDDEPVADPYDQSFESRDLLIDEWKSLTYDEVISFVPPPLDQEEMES

Take `COc1cc(Nc2nccc(Oc3ccc(NC(=O)Nc4cc(C(C)(C)C)nn4-c4ccc(C)cc4)c4ccccc34)n2)cc(S(=O)(=O)CCCN2CCOCC2)c1` [Example 43, 1-(3-(tert-Butyl)-1-(p-tolyl)-1H-pyrazol-5-yl)-3-(4-((2-((3-methoxy-5-((3-morpholinopropyl)-sulfonyl)phenyl)amino)pyrimidin-4-yl)oxy)naphthalen-1-yl)urea]: the IC50 turned out to be 531 nM against GSK3α, 2.9 nM in the test on PBMCs [1], 2.2 nM in the test with PBMCs [2] (setting [3]) and 78.7 nM with PBMCs [2] (setting [4]).
Consider `COc1cc(Nc2nccc(Oc3ccc(NC(=O)Nc4cc(C(C)(C)C)nn4-c4ccc(C)cc4)c4ccccc34)n2)cc(SCCN2CCOCC2)c1` [Example 41, 1-(3-(tert-Butyl)-1-(p-tolyl)-1H-pyrazol-5-yl)-3-(4-((2-((3-methoxy-5-((2-morpholinoethyl)-thio)phenyl)amino)pyrimidin-4-yl)oxy)naphthalen-1-yl)urea], for which the IC50 against p38 MAPKα came to 224 nM; on GSK3α it was 2820 nM; in the test with PBMCs [1], 4.8 nM; in the test on PBMCs [2] (setting [3]) it was 2.5 nM; with PBMCs [2] (setting [4]) it was 80.3 nM.
In the case of `COCCOCCOCCOc1cc(F)cc(Nc2nccc(Oc3ccc(NC(=O)Nc4cc(C(C)(C)C)nn4-c4ccc(C)cc4)c4ccccc34)n2)c1` [Example 50, 1-(3-(tert-Butyl)-1-(p-tolyl)-1H-pyrazol-5-yl)-3-(4-((2-((3-fluoro-5-(2-(2-(2-methoxyethoxy)-ethoxy)ethoxy)phenyl)amino)pyrimidin-4-yl)oxy)naphthalen-1-yl)urea], the IC50 against GSK3α turned out to be 3030 nM; in the test with PBMCs [1], 8.6 nM.
For the compound `COc1cc(Nc2nccc(Oc3ccc(NC(=O)Nc4cc(C(C)(C)C)nn4-c4ccc(C)cc4)c(Cl)c3Cl)n2)cc(OCCCN2CCOCC2)c1` [Example 65, 1-(3-(tert-Butyl)-1-(p-tolyl)-1H-pyrazol-5-yl)-3-(2,3-dichloro-4-((2-((3-methoxy-5-(3-morpholinopropoxyl)phenyl)amino)pyrimidin-4-yl)oxy)phenyl)urea], the IC50 at GSK3α is > 10000 nM; in the test with PBMCs [1], 3.5 nM; with PBMCs [2] (setting [3]), 2.8 nM; in the test with PBMCs [2] (setting [4]) it was 37 nM.
Take `COc1ccc(-n2nc(C(C)(C)C)cc2NC(=O)Nc2ccc(Oc3ccnc(Nc4cccc(OC(N)=O)c4)n3)c3ccccc23)cn1` [Example 5, 3-(4-((4-(3-(3-(tert-Butyl)-1-(6-methoxypyridin-3-yl)-1H-pyrazol-5-yl)ureido)naphthalen-1-yl)oxy)pyrimidin-2-yl)amino)phenyl carbamate]: the IC50 amounted to 306 nM against GSK3α and 1.9 nM with PBMCs [1].
Turning to `COc1cc(Nc2nccc(Oc3ccc(NC(=O)Nc4cc(C(C)C)nn4-c4ccc(C)cc4)c(F)c3F)n2)cc(OCCN2CCOCC2)c1` [Example 25, 1-(2,3-Difluoro-4-((2-((3-methoxy-5-(2-morpholinoethoxy)phenyl)amino)pyrimidin-4-yl)oxy)phenyl)-3-(3-isopropyl-1-(p-tolyl)-1H-pyrazol-5-yl)urea], the IC50 on GSK3α came out at 804 nM; with PBMCs [1], 2 nM.
With `COCCOCCOCCOc1cc(Cl)cc(Nc2nccc(Oc3ccc(NC(=O)Nc4cc(C(C)(C)C)nn4-c4ccc(C)cc4)c4ccccc34)n2)c1` [Example 64, 1-(3-(tert-Butyl)-1-(p-tolyl)-1H-pyrazol-5-yl)-3-(4-((2-((3-chloro-5-(2-(2-(2-methoxyethoxy)-ethoxy)ethoxy)phenyl)amino)pyrimidin-4-yl)oxy)naphthalen-1-yl)urea], the figures for the IC50 on GSK3α and with PBMCs [1] were > 10000 nM and 9.5 nM, respectively.
The corresponding values for `COCCOCCOCCOc1cc(Nc2nccc(Oc3ccc(NC(=O)Nc4cc(C(C)(C)C)nn4-c4ccc(C)cc4)c4ccccc34)n2)cc(N(C)C)c1` [Example 66, 1-(3-(tert-Butyl)-1-(p-tolyl)-1H-pyrazol-5-yl)-3-(4-((2-((3-(dimethylamino)-5-(2-(2-(2-methoxyethoxy)ethoxy)ethoxy)phenyl)amino)pyrimidin-4-yl)oxy)naphthalen-1-yl)urea] are 3390 nM and 2.6 nM.
Turning to `COCCOCCOCCOc1cc(Nc2nccc(Oc3ccc(NC(=O)Nc4cc(C(F)(F)C(F)(F)F)nn4-c4ccc(C)cc4)c4ccccc34)n2)cc(OC)c1` [Example 39, 1-(4-((2-((3-Methoxy-5-(2-(2-(2-methoxyethoxyl)ethoxy)ethoxy)phenyl)amino)pyrimidin-4-yl)oxy)naphthalen-1-yl)-3-(3-(perfluoroethyl)-1-(p-tolyl)-1H-pyrazol-5-yl)urea], the IC50 against p38 MAPKα is 433 nM; against GSK3α, 9540 nM; in the test on PBMCs [1] it was 5.5 nM.
Take `COc1ccc(-n2nc(C(C)(C)C)cc2NC(=O)Nc2ccc(Oc3ccnc(Nc4cccc([S+]([O-])C5CC5)c4)n3)c3ccccc23)cn1` (stereo not drawn) [Example 7, 1-(3-(tert-Butyl)-1-(6-methoxypyridin-3-yl)-1H-pyrazol-5-yl)-3-(4-((2-((3-(cyclopropyl-sulfinyl)phenyl)amino)pyrimidin-4-yl)oxy)naphthalen-1-yl)urea]: the IC50 against GSK3α came to 125 nM; with PBMCs [1], 0.9 nM.
Take `Cc1ccc(-n2nc(C(C)C)cc2NC(=O)Nc2ccc(Oc3ccnc(Nc4cccc(S(=O)(=O)C5CC5)c4)n3)c(Cl)c2Cl)cc1` [Example 24, 1-(2,3-Dichloro-4-((2-((3-(cyclopropylsulfonyl)phenyl)amino)pyrimidin-4-yl)oxy)phenyl)-3-(3-isopropyl-1-(p-tolyl)-1H-pyrazol-5-yl)urea]: the half-inhibitory concentration (IC50) is 117 nM at GSK3α and 3.8 nM in the test on PBMCs [1].
On to `COCCOCCOCCOc1cc(Nc2nccc(Oc3ccc(NC(=O)Nc4cc(C(C)(C)C(F)(F)F)nn4-c4ccc(C)cc4)c4ccccc34)n2)cc(OC)c1` [Example 40, 1-(4-((2-((3-Methoxy-5-(2-(2-(2-methoxyethoxyl)ethoxy)ethoxy)phenyl)amino)pyrimidin-4-yl)oxy)naphthalen-1-yl)-3-(1-(p-tolyl)-3-(1,1,1-trifluoro-2-methylpropan-2-yl)-1H-pyrazol-5-yl)urea], for which the IC50 at GSK3α was found to be 8170 nM; in the test with PBMCs [1], 7.2 nM; with PBMCs [2] (setting [3]), 1 nM; in the test on PBMCs [2] (setting [4]) it was 175 nM.
As to `COCCOCCOCCS(=O)(=O)c1cc(Nc2nccc(Oc3ccc(NC(=O)Nc4cc(C(C)C)nn4-c4ccc(C)cc4)c4ccccc34)n2)cc(OC)c1` [Example 36, 1-(3-Isopropyl-1-(p-tolyl)-1H-pyrazol-5-yl)-3-(4-((2-((3-methoxy-5-((2-(2-(2-methoxy-ethoxy)ethoxy)ethyl)sulfonyl)phenyl)amino)pyrimidin-4-yl)oxy)naphthalen-1-yl)urea], the IC50 worked out at 596 nM against GSK3α and 2.5 nM in the test with PBMCs [1].

A word on the IC50: it is the concentration at which inhibition is half-maximal.

These data come from patent US9732063B2, “Kinase inhibitors” (RESPIVERT LIMITED, priority 2012, dated 2017).
